This test has as its target T1, human mGluR7 (Homo sapiens, UniProt Q14831).
T1 construct: expressed in transfected cells
Nature of the test: mGluR7 assay: CRE-directed luciferase reporter gene assay, reduction of forskolin stimulated cAMP production. As to conditions: stable CHO cell line expressing the CRE-luc reporter and human mGluR7 genes; decrease of forskolin stimulated luminescence; 10-point concentration-response, duplicate wells. It is filed as cell-based. As for the experimental part:
The ability of the test compounds to activate mGluR7 was determined by their ability to reduce forskolin stimulated cAMP production. Compounds were assessed in a CRE-directed luciferase reporter gene assay, using a stable CHO cell line expressing the CRE-luc reporter and human mGluR7 genes. In this cell line, production of cAMP stimulated the transcription of the luciferase gene and luciferase activity was then measured in a luminescent enzyme assay (Steady Glo assay; Promega E2550). Activation of mGluR7 decreased the forskolin stimulated luminescence signal.
The day prior to the assay, compounds were serially diluted in DMSO (100× final assay concentration (FAC)), in 384-well plates which were then stored in the dark at room temperature (RT) until use. Cells were seeded at 12.5 k/well in white, clear bottom 384-well plates (Corning 3707) and left for one hour at RT followed by an overnight incubation (37° C.). The following day, the DMSO compound plate was diluted 1:20 (5× FAC) in Opti-MEM I (Life Technologies 11058021). The growth media was removed from the cell plate and replaced with 15 μl Opti-MEM I, followed by a 5 μl addition from the 5× compound plate and a fifteen minute incubation (37° C.). Forskolin (Sigma F3917) was then added to the wells (5 μl of 2.5 μM) and the plate was incubated for five hours (37° C.). During this incubation, the Steady Glo Substrate reagent was warmed to 37° C. Aliquots (11 ml; stored at −20° C.) of this reagent were prepared by dissolving the contents of 1 vial of lyophilised substrate in 100 ml Steady-Glo buffer. A 25 μl addition of the substrate was made to all wells and the plate was incubated for thirty minutes at RT, on a plate shaker (300 rpm; in the dark). Luminescence was then measured using the EnVision Multilabel Reader (Perkin Elmer).
Compound activity was examined using a 10-point, half log concentration-response range and each concentration was tested in duplicate wells. Luminescence values were normalised to ‘maximum’ (forskolin alone) and ‘minimum’ (forskolin in the presence of tool mGluR7 agonist) controls.
Background: A reporter such as luciferase makes a cellular process visible.

Results on 34 compounds are retold here after patent US20190031599A1, “INDANE DERIVATIVES AS MGLUR7 MODULATORS” (Takeda Pharmaceutical Company Limited, priority 2016, published 2019).

Structures can show the parent of a compound that is named as a salt.

T1 sequence (Q14831 35-915): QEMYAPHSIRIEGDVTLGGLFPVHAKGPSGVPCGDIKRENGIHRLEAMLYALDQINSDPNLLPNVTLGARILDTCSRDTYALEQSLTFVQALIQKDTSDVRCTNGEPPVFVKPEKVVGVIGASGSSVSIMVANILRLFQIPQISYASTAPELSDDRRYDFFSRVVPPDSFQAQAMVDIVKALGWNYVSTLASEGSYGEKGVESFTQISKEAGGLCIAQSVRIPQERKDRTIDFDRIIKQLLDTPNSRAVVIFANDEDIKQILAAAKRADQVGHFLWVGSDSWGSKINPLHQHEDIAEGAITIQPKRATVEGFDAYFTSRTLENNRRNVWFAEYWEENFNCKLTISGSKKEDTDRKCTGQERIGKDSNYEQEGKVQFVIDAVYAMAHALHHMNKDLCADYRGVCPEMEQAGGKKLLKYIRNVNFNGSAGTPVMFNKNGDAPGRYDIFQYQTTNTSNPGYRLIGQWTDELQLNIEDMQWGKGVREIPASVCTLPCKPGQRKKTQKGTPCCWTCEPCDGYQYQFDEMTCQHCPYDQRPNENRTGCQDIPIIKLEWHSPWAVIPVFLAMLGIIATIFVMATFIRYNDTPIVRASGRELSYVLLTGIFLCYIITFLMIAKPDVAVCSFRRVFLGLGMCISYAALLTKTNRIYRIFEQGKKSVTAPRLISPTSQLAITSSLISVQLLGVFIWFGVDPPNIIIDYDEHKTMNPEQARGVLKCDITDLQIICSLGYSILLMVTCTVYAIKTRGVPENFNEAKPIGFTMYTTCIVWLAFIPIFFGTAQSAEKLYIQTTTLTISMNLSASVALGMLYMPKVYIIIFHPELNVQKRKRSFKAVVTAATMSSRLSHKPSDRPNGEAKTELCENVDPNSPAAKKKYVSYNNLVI

In general, EC50 refers to the concentration giving half of the maximal effect. `N[C@H]1c2ccccc2C[C@@H]1NC(=O)C(c1ccc(F)cc1F)N1CCC1` (stereo partly drawn) [Example 108, N-[(1S,2S)-1-amino-2,3-dihydro-1H-inden-2-yl]-2-(azetidin-1-yl)-2-(2,4-difluorophenyl)acetamide] displayed an EC50 of 190 nM.

In turn, `COC1c2ccccc2CC1NC(=O)[C@@H](C)c1ccc(F)cc1F` (single isomer, unassigned) [Example 27] returned an EC50 of 21 nM.

Compound `CCC(C(=O)N[C@H]1Cc2ccccc2[C@@H]1N)c1ccc(F)cc1F` (stereo partly drawn) [Example 14, N-[(1S,2S)-1-amino-2,3-dihydro-1H-inden-2-yl]-2-(2,4-difluorophenyl)butanamide hydrochloride] registered an EC50 of 139 nM. Compared with the last compound, the EC50 is about 6.6-fold higher.

In the case of `COC1c2ccccc2CC1NC(=O)C(c1ccc(F)cc1)n1ncccc1=O` (single isomer, unassigned) [Example 130, 2-(4-fluorophenyl)-N-(trans)-(1-methoxy-2,3-dihydro-1H-inden-2-yl)-2-(6-oxo-1,6-dihydropyridazin-1-yl)acetamide], a half-maximal response (EC50) required 148 nM.

In turn, `COC1c2ccccc2C[C@@H]1NC(=O)[C@@H](NC(=O)C1CCOCC1)c1ccc(F)cc1` (stereo partly drawn) [Example 98, (2S)-2-(4-fluorophenyl)-N-(trans)-(1-methoxy-2,3-dihydro-1H-inden-2-yl)-2-[(oxan-4-yl)formamido]acetamide] yielded a concentration giving a half-maximal response (EC50) of 4 nM. Against the preceding compound, the EC50 is about 37-fold lower.

As for `COC1c2ccccc2CC1NC(=O)[C@@H](C)c1ccc(F)cc1F` (mixture of isomers) [Example 25, (2S)-2-(2,4-difluorophenyl)-N-((trans)-1-methoxy-2,3-dihydro-1H-inden-2-yl)propanamide], the half-maximal effective concentration (EC50) was found to be 24 nM.

Compound `COC1c2ccccc2CC1NC(=O)C(c1ccc(F)cc1F)N1CC(F)C1` (single isomer, unassigned) [Example 136, 2-(2,4-difluorophenyl)-2-(3-fluoroazetidin-1-yl)-N-(trans)-(1-methoxy-2,3-dihydro-1H-inden-2-yl)acetamide] came in with an EC50 of 1980 nM.

As to `CC(C)(C)OC(=O)N[C@H]1c2ccccc2C[C@@H]1NC(=O)C1(c2ccccc2)CNC(=O)C1` (stereo partly drawn) [Example 121, tert-butyl N-[(1S,2S)-2-(5-oxo-3-phenylpyrrolidine-3-amido)-2,3-dihydro-1H-1-inden-1-yl]carbamate], the 50% effective concentration (EC50) is 42 nM.

`CC[C@H](C(=O)N[C@H]1Cc2ccccc2[C@@H]1NC(=O)OC(C)(C)C)c1ccc(F)cc1` [Example 42, tert-butyl N-[(1S,2S)-2-[(2S)-2-(4-fluorophenyl)butanamido]-2,3-dihydro-1H-inden-1-yl]carbamate] returned an EC50 of 13 nM.

The compound `C[C@H](C(=O)N[C@H]1Cc2ccccc2[C@@H]1N)c1ccc(F)cc1` [Example 24, (2S)—N-[(1S,2S)-1-amino-2,3-dihydro-1H-inden-2-yl]-2-(4-fluorophenyl)propanamide] yielded an EC50 of 66 nM. This EC50 is about 5.1-fold higher than that of the compound before.

Compound `COC1c2ccccc2CC1NC(=O)C(c1ccc(F)cc1)N1CC(F)C1` (single isomer, unassigned) [Example 142, 2-(4-fluorophenyl)-2-(3-fluoroazetidin-1-yl)-N-(trans)-(1-methoxy-2,3-dihydro-1H-inden-2-yl)acetamide] came in with a half-maximal effective concentration (EC50) of 62 nM. The EC50 values of the last two compounds are within 1.5-fold of each other.

For the compound `C[C@H](C(=O)NC1Cc2ccccc2C1O)c1ccccc1` (mixture of isomers) [Example 2, (2S)—N-((trans)-1-hydroxy-2,3-dihydro-1H-inden-2-yl)-2-phenylpropanamide], the EC50 was determined as 107 nM. This EC50 lies about 1.7-fold higher than the previous one.

Consider `C[C@@H](C(=O)NC1Cc2ccccc2C1O)c1ccccc1` (stereo in doubt) [Example 1, (2R)—N-((trans)-1-hydroxy-2,3-dihydro-1H-inden-2-yl)-2-phenylpropanamide], for which the response was half-maximal at 559 nM (EC50). This EC50 lies about 5.2-fold higher than the previous one.

On to `CC[C@H](C(=O)N[C@@H]1Cc2ccccc2[C@H]1NC(=O)OC(C)(C)C)c1ccc(F)cc1` [Example 43, tert-butyl N-[(1R,2R)-2-[(2S)-2-(4-fluorophenyl)butanamido]-2,3-dihydro-1H-inden-1-yl]carbamate], for which the midpoint of the response, the EC50, lay at 130 nM.

`C[C@H](C(=O)NC1Cc2ccccc2C1N1CCCC1)c1ccccc1` (mixture of isomers) [Example 78, (2S)-2-phenyl-N-(trans)-[1-(pyrrolidin-1-yl)-2,3-dihydro-1H-inden-2-yl]propanamide] displayed an EC50 of 322 nM.

In turn, `C[C@H](C(=O)NC1Cc2ccccc2C1N1CCOCC1)c1ccc(F)cc1` (single isomer, unassigned) [Example 73] showed an EC50 of 45 nM.

The compound `CCC(C(=O)N[C@H]1Cc2ccccc2[C@@H]1N)c1ccc(F)cc1F` (single isomer, unassigned) [Example 15] showed an EC50 of 25 nM.

For the compound `CCOC1c2ccccc2CC1NC(=O)[C@@H](C)c1ccc(F)cc1F` (mixture of isomers) [Example 28, (2S)-2-(2,4-difluorophenyl)-N-((trans)-1-ethoxy-2,3-dihydro-1H-inden-2-yl)propanamide], the EC50 is 28 nM.

For `COC1c2ccccc2CC1NC(=O)C(c1ccc(F)cc1F)N1CC(F)C1` (single isomer, unassigned) [Example 138, 2-(2,4-difluorophenyl)-2-(3-fluoroazetidin-1-yl)-N-(trans)-(1-methoxy-2,3-dihydro-1H-inden-2-yl)acetamide], the EC50 is 14 nM.

In turn, `C[C@H](C(=O)N[C@@H]1Cc2ccccc2[C@H]1N1CC(F)C1)c1ccc(F)cc1` [Example 112, (2S)—N-[(1R,2R)-1-(3-fluoroazetidin-1-yl)-2,3-dihydro-1H-inden-2-yl]-2-(4-fluorophenyl)propanamide] yielded an EC50 of 11 nM.

`C[C@H](C(=O)N[C@H]1Cc2ccccc2[C@@H]1N(C)C)c1ccc(F)cc1` [Example 74, (2S)—N-(trans)-[1-(dimethylamino)-2,3-dihydro-1H-inden-2-yl]-2-(4-fluorophenyl)propanamide] came in with an EC50 of 94 nM.

Compound `C[C@H](C(=O)NC1Cc2ccccc2C1O)c1ccc(F)cc1` (single isomer, unassigned) [Example 62] yielded an EC50 of 704 nM.

In turn, `CC(C(=O)N[C@H]1Cc2ccccc2[C@@H]1NC(=O)OC(C)(C)C)c1ccc(OC(F)F)cc1` (stereo partly drawn) [Example 151, tert-butyl N-[(1S,2S)-2-{2-[4-(difluoromethoxy)phenyl]propanamido}-2,3-dihydro-1H-inden-1-yl]carbamate] showed a half-maximal effective concentration (EC50) of 441 nM. Compared with the last compound, the EC50 is about 1.6-fold lower.

Compound `CC(C)C(C(=O)N[C@H]1Cc2ccccc2[C@@H]1N)c1ccc(Cl)cc1` (stereo partly drawn) [Example 20, N-[(1S,2S)-1-amino-2,3-dihydro-1H-inden-2-yl]-2-(4-chlorophenyl)-3-methylbutanamide hydrochloride] came in with a concentration giving a half-maximal response (EC50) of 104 nM.

On to `C[C@H](C(=O)NC1Cc2ccccc2C1N1CCCC1)c1ccc(F)cc1` (single isomer, unassigned) [Example 68], for which the response was half-maximal at 28 nM (EC50).

Take `COC1c2ccccc2CC1NC(=O)[C@@H](NC(=O)C1CC1)c1ccc(F)cc1` (single isomer, unassigned) [Example 102]: the half-maximal effective concentration (EC50) was found to be 6 nM. This EC50 lies about 4.7-fold lower than the previous one.

In turn, `COC1c2ccccc2CC1NC(=O)[C@@H](N)c1ccc(F)cc1` (mixture of isomers) [Example 54, (2S)-2-amino-2-(4-fluorophenyl)-N-(trans)-(1-methoxy-2,3-dihydro-1H-inden-2-yl)acetamide] gave an EC50 of 66 nM.

Turning to `COC1c2ccccc2CC1NC(=O)C(c1ccc(F)cc1)N1CC(F)C1` (single isomer, unassigned) [Example 141, 2-(4-fluorophenyl)-2-(3-fluoroazetidin-1-yl)-N-(trans)-(1-methoxy-2,3-dihydro-1H-inden-2-yl)acetamide], a half-maximal effect (EC50) was put at 39 nM.

Regarding `COC1c2ccccc2CC1NC(=O)[C@@H](C)c1ccccc1` (single isomer, unassigned) [Example 9], the EC50 is 37 nM. This EC50 and that of the compound before are within 1.5-fold of each other.

Take `CC[C@H](C(=O)NC1Cc2ccccc2C1OC)c1ccc(F)cc1` (single isomer, unassigned) [Example 45]: the EC50 was 17 nM.

In turn, `N[C@H]1c2ccccc2C[C@@H]1NC(=O)C(c1ccc(F)cc1)N1CC(F)C1` (single isomer, unassigned) [Example 117] registered an EC50 of 10 nM.

Regarding `CC(=O)N[C@H]1c2ccccc2C[C@@H]1NC(=O)[C@@H](C)c1ccccc1` [Example 13, (2S)—N-[(1S,2S)-1-acetamido-2,3-dihydro-1H-inden-2-yl]-2-phenylpropanamide], the half-maximal effective concentration (EC50) was 1200 nM.

`CS(=O)(=O)[C@@H]1c2ccccc2C[C@H]1NC(=O)C(OCC1CC1)c1ccccc1` (relative stereo) [Example 135, 2-(cyclopropylmethoxy)-N-(trans)-(1-methanesulfonyl-2,3-dihydro-1H-inden-2-yl)-2-phenylacetamide]: the midpoint of the response, the EC50, lay at 4 nM.

`CCN[C@H]1c2ccccc2C[C@@H]1NC(=O)[C@@H](C)c1ccc(F)cc1` [Example 134, (2S)—N-[(1S,2S)-1-(ethylamino)-2,3-dihydro-1H-inden-2-yl]-2-(4-fluorophenyl)propanamide] came in with a concentration for a half-maximal effect (EC50) of 86 nM.
